Data: US7816074B2, “α4 β2 δGABA-A receptors as a strategy for PMS and alcoholism” (priority 2003, dated 2010)

Assays:
[1] = tested on: GABAR α4 subunit; test: Western blot of α4 subunit in hippocampus after steroid and ethanol administration; assay type: in vivo, rat; settings: 48 hours of exposure to 3α,5β-THP (10 mg/kg i.p.), saline
Description: (§1) Animals were administered steroids using one of two protocols: (i) For the 48 hour steroid administration protocol, animals were injected with 10 mg/kg 3α, 5β THP in oil, i.p., on a daily basis for three days and sacrificed 1-2 hour following the final injection. Controls were injected with oil vehicle. […] At this time, the capsule was removed and the animals were injected with 17 β estradiol (2 μgs/animal) in order to reset their cycle. Animals were sacrificed 24 hours later. […] In all cases, implantation and removal of capsules were performed under halothane anesthesia. […] Therefore, this study employed the 5β isomer of the steroid.
(§2) In some groups of animals, either ethanol (0.5 g/kg in saline) or saline vehicle was administered i.p. (3×, every 40 minutes) for the final 2 hours of the respective steroid administration or withdrawal paradigm. The use of multiple injections of low doses of ethanol would approximate ethanol consumption in the human more closely than would a single injection. For the 48 hour steroid administration paradigm, animals received their first ethanol injection immediately after the steroid injection, and subsequent injections at 40 minute intervals. In all cases, animals were sacrificed 40 minutes after the final ethanol injection (2 hours after the first ethanol injection and final steroid injection). All animal protocols were carried out with the approval of the Institutional Animal Care and Use Committee.
Hippocampi removed from steroid or vehicle-treated animals were homogenized, and membranes prepared as previously described (65). Following electrophoresis on 8% SDS polyacrylamide gels, membranes were transferred to a nitrocellulose membrane (Bio-Rad, Hercules, Calif.). α4 subunit levels were detected by evaluating the band density at 67 kDa after probing with a polyclonal antibody (64). Membranes were incubated for 1-2 hours at room temperature with a 1:5000 dilution of horseradish peroxidase-conjugated donkey anti-rabbit IgG (Amersham, Arlington Heights, Ill.), and visualized with enhanced chemiluminescence with varying concentrations of protein in the linear range. Immunoreactive band densities were quantified using a CCD camera (UMAX Scanner) and one-Dscan software, which uses multiple Gaussian fits to achieve accurate band density profiles.

[2] = target: T1, α1β2 receptors (Rattus norvegicus, UniProt P62813+P63138); test: Two-electrode voltage-clamp of recombinant GABAA receptors in oocytes; assay type: cell-based, expressed in Xenopus laevis oocytes; settings: 1 μM zinc; n=5
T1 construct: expressed in transfected cells; host or cells: oocytes injected with cRNA (Xenopus laevis is named only)
From the text: (§3) Plasmids with inserts encoding GABAA receptor subunit sequence for rat α1 (62), rat β2 (83), rat α2 (62), rat α5 (62), mouse α4 (37), mouse β3 (82), rat β1 (83), rat γ2S (63), human δ (12), and human ε (11) were produced by subcloning each separately into an appropriate cloning vehicle such as PCDM8, pCDNA3.1 or pGHEMHE vectors (Invitrogen, Carlsbad Calif.) using a T7 promoter and standard subcloning techniques (59). Plasmids were linearized with an appropriate restriction enzyme at a site 3′ to the insert and cRNAs were synthesized using T3 or T7 polymerase (mMessage mMachine, Ambion, Tex.). The size of the cRNA was verified and RNA was quantified by ethidium bromide staining after electrophoresis on 1% agarose gels.
The preparation, injection, and maintenance of oocytes were carried out as described previously (78). […]
Voltage-clamp recording was carried out 1 to 3 days after injection of cRNAs. […] Oocytes were voltage-clamped at −70 mV and macroscopic currents were recorded with a two-electrode voltage-clamp using a Warner Instruments OC-725 amplifier as described previously (79). Currents were recorded on a chart recorder or by using Axograph on a Macintosh computer. […]

[3] = target: T2, α1β2δ receptors (oocytes injected with α1+β2+δ) (UniProt O14764+P62813+P63138); assay type: cell-based, rat α1, rat β2, human δ, expressed in Xenopus laevis oocytes; settings: 1 μM zinc; 7 of 22 oocytes injected with α1+β2+δ
T2 construct: expressed in transfected cells; host or cells: oocytes injected with cRNA (Xenopus laevis is named only)
From the text: as §3
(§4) The preparation, injection, and maintenance of oocytes were carried out as described previously (78). Oocytes were injected with receptor subunit cRNAs (2 to 20 ng) in the following ratios: α1:β1:γ2S, α1:β2:γ2S and α1:β1:ε1, 1:1:1; α2:β1:γ2S, α5:β1:γ2S, α4:β1:γ2S, and α4:β2:γ2S, 10:1:1; α4:β1:δ, α4:β2:δ, α4:β3δ, 10:1:10; α1:β2:δ, 1:1:10 or 1:0.5:3; α1:β1:δ, 1:1:10 or 1:0.5:3; α2:β1:δ and α2:β2:δ, 1:0.5:3; α1:β1, α1:β2, α2:β1, α2:β2, β2:γ2S and α4δ, 1:1, α4:β1, α4:β2, α4:β3, 10:1, β2δ, 1:10.
(§5) Voltage-clamp recording was carried out 1 to 3 days after injection of cRNAs. Electrodes were filled with 3 M KCl and had resistances of 0.4-4 MΩ. Oocytes were positioned in a small Perspex chamber and continuously superfused with a saline solution (100 mM NaCl, 2 mM KCl, 1.8 mM CaCl2, 10 mM HEPES, pH 7.5). Agonists and modulators were both applied in the same saline solution. Oocytes were voltage-clamped at −70 mV and macroscopic currents were recorded with a two-electrode voltage-clamp using a Warner Instruments OC-725 amplifier as described previously (79). Currents were recorded on a chart recorder or by using Axograph on a Macintosh computer.
(§6) Other subunits (α1, α2, β1, β2) were tested for co-expression with the δ subunit. […]

[4] = target: T3, α1β2δ receptors (oocytes injected with α1+β2+δ) (Rattus norvegicus, UniProt P62813+P63138); assay type: cell-based, human δ, expressed in Xenopus laevis oocytes; settings: 1 μM zinc; the other 15 oocytes injected with α1+β2+δ
T3 construct: expressed in transfected cells; host or cells: oocytes injected with cRNA (Xenopus laevis is named only)
From the text: as §3, §4, §5, §6

[5] = tested on: GABAR of acutely dissociated CA1 hippocampal pyramidal neurons; test: Whole cell patch clamp, lorazepam modulation and decay of GABA-gated current after steroid/ethanol treatment; assay type: cell-based, rat
Description: as §1, §2
Currents were recorded using an Axopatch 1D amplifier (Axon Instruments) filtered at 2 kHz (four-pole Bessel filter) and detected at 500 Hz (pClamp 5.1).

[6] = target: T4, α4β2δ GABAA receptors (UniProt O14764+P63138+Q9D6F4); test: Two-electrode voltage-clamp of recombinant GABAA receptors in oocytes; assay type: cell-based
T4 construct: expressed in transfected cells

[7] = target: T4, α4β2δ GABAA receptors; settings: α4βδ receptors (ref. 6); cited from earlier work
[8] = tested on: female Long Evans rats; test: Acoustic startle response (ASR); assay type: in vivo, rat; settings: THIP 3 mg/kg i.p.
Description: Animals were tested in a stabilimeter device (SR-Lab Startle Response System, San Diego Instruments, Inc., San Diego, Calif.) that permits vertical movement of a Plexiglas platform contained within a lit, well-ventilated sound-attenuating chamber (26). The amplitude of movement is detected by a piezoelectric device with a voltage output proportional to platform displacement. The analog output of the accelerometer is then amplified and digitized before computer analysis. Five minutes after i.p. administration of 10% ethanol (0.05-1.6 g/kg) or saline vehicle (1.5 ml volume) or 25 minutes after 4,5,6,7-tetrahydroisoxazolo[5,4-c]pyridin-3-ol injection (3 mg/kg, i.p.), animals were placed in the chamber for a 5 minutes acclimation period. […] Four acoustic stimuli (116 dB, 40 ms duration) were then presented at random intervals once every 10-15 seconds via a white-noise generator through speakers positioned on either side of the cage. […] For each acoustic stimulus, the amplitude and integrated response (amplitude and duration) were determined and normalized to the weight of the animal. Values for the integrated response after administration of each dose of ethanol or 4,5,6,7-tetrahydroisoxazolo[5,4-c]pyridin-3-ol were averaged and expressed as a fraction of the saline control average for the indicated treatment (progesterone withdrawal versus control) group in order to minimize variability between groups. […] It is also routinely used to assess behavioral excitability after withdrawal from BDZs and ethanol (73).
Animals were tested in a stabilimeter device (SR-Lab Startle Response System, San Diego Instruments, Inc.) that permitted vertical movement of a Plexiglas cage contained within a lit, well-ventilated, sound-attenuating chamber. The amplitude of movement was detected by a piezoelectric device with a voltage output proportional to cage displacement. The analog output of the accelerometer was amplified and digitized before computer analysis (15). Five minutes following intraperitoneal administration of alcohol (0.2 or 0.4 g/kg) or saline vehicle (1.5 ml volume), animals were placed in the chamber for 5 a minute acclimation period. Five acoustic stimuli (116 dB, 40 msec duration) were then presented once every 10-15 seconds via a white-noise generator through speakers positioned on either side of the cage. For each acoustic stimulus, the integrated response (amplitude and duration) was averaged across a 100 msec post-stimulus time period and the response latency determined. Both values were normalized to the weight of the animal. Values for the integrated response for the first noise stimulus following administration of each dose of alcohol were averaged and expressed as a fraction of the saline control average for the indicated treatment (P Wd versus control) group. […] It is routinely used to assess behavioral excitability following withdrawal from benzodiazepiness (48) and alcohol (73), and is known to be modified by GABA modulators, such as diazepam (11), and by local infusion of excitatory compounds into dorsal hippocampus (85).

[9] = tested on: GABAA receptors of acutely isolated CA1 hippocampal pyramidal cells; test: Whole cell patch clamp, ethanol or THIP effect on GABA-gated current; assay type: cell-based, rat; settings: after progesterone withdrawal
Description: Pyramidal neurons were acutely dissociated from CA1 hippocampus and GABA-gated Cl^− currents analyzed using whole cell patch clamp procedures as previously described (67). Briefly, tissue was digested at 32° C. for 50-60 minutes under 100% O2 in PIPES-buffered saline containing (in mM): NaCl 120, KCl 5, CaCl2 1, MgCl2 1, D-glucose 25, PIPES 20 and trypsin (type XI, sigma) 0.8 mg/ml, pH 7.0. After 1 hour of enzyme-free incubation at room temperature, tissue was dissociated by trituration in 1 ml of 20 mM HEPES-buffered DMEM which was replaced by recording medium after transfer to the recording chamber. GABA-gated currents were recorded at room temperature (20-25° C.) at a holding potential of −50 mV in a bath containing (in mM): NaCl 120, CsCl 5, CaCl2 2, MgCl2 1, TEA Cl 15, 4-aminopyridine 5, HEPES 10 and glucose 25, pH 7.4, 320 mOsm/kg H2O. The pipette solution contained (in mM): N-methyl-D-glucamine chloride 120, Cs4BAPTA 5 and Mg-ATP 5. The ATP regeneration system Tris phosphocreatine (20 mM) and creatine kinase were added to minimize GABA rundown. All drugs were obtained from Sigma Chemical Co, (St. Louis, Mo.), except for BAPTA (Calbiochem, San, Diego, Calif.).
Peak currents were calculated for all drug concentrations as relative to the current gated by 10 μM GABA alone using the equation: ([peak current: GABA+ETOH]−[peak current: GABA alone])/[peak current: GABA alone]. Currents were recorded using an Axopatch 1D amplifier (Axon Instruments) filtered at 2 kHz (four-pole Bessel filter) and detected at 500 Hz (pClamp 5.1).
Following progesterone withdrawal or control conditions, pyramidal cells were acutely isolated from CA1 hippocampus as described (65,64). GABA-gated Cl^− currents were recorded using whole cell patch clamp techniques at a holding potential of −50 mV.

T4 sequence (Q9D6F4 36-552): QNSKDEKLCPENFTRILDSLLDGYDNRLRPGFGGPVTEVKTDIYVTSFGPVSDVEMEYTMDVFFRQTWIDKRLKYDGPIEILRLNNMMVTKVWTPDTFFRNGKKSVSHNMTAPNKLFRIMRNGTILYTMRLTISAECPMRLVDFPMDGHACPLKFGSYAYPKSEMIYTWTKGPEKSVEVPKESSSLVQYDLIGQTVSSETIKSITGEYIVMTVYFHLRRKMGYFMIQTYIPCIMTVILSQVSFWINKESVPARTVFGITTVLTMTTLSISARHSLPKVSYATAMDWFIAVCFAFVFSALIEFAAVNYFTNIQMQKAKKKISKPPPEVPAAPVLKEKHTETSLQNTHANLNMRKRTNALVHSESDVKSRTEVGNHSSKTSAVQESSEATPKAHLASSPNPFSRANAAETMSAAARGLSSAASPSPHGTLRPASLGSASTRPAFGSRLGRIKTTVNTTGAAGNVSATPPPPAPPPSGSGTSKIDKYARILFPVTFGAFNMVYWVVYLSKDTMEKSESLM
T4 sequence (P63138 25-474 limits assumed): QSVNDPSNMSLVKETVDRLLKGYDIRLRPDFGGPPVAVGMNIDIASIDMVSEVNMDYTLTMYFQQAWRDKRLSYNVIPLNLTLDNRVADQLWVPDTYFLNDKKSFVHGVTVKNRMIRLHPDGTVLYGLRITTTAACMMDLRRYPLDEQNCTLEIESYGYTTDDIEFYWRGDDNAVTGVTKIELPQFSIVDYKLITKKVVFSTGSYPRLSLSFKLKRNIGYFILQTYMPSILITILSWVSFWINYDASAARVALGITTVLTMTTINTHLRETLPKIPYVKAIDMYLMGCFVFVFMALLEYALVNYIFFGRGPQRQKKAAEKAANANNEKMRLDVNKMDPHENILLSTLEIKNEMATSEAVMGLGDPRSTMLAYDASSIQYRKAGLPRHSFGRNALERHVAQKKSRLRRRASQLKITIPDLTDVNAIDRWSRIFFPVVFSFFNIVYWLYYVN
T4 sequence (O14764 17-452 limits assumed): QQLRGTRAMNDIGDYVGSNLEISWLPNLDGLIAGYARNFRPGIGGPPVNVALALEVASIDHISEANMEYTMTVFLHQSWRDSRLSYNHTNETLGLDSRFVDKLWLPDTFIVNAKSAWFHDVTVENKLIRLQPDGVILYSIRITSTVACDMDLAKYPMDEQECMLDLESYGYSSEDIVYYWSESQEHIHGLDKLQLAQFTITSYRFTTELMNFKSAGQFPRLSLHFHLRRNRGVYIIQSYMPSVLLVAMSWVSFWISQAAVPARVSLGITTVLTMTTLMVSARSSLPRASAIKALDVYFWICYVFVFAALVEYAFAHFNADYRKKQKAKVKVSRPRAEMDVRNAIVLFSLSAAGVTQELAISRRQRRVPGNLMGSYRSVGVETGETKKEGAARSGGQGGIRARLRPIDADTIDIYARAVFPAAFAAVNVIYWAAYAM
T2 sequence (P62813 28-455): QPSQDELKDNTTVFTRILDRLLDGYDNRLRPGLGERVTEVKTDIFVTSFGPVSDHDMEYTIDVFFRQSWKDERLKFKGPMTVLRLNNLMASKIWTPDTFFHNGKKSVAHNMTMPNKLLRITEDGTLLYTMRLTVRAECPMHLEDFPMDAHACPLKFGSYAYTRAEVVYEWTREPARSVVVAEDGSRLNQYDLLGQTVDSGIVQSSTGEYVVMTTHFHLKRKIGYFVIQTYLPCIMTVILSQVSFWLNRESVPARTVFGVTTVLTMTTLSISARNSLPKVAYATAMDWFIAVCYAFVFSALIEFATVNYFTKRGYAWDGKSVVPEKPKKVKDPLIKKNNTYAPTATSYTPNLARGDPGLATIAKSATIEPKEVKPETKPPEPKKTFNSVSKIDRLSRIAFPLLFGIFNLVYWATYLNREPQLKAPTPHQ
T2 sequence (P63138 26-474): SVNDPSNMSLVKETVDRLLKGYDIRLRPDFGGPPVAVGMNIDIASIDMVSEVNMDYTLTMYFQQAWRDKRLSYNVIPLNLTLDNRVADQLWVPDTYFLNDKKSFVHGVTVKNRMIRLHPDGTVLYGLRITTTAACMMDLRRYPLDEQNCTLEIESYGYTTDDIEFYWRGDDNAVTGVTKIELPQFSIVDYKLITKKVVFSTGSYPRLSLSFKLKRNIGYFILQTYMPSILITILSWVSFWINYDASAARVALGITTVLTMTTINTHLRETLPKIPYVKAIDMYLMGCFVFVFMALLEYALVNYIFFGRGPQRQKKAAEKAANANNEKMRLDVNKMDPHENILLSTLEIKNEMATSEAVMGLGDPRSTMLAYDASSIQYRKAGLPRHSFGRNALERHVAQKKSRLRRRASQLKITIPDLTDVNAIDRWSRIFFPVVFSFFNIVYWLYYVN
T2 sequence (O14764 25-452): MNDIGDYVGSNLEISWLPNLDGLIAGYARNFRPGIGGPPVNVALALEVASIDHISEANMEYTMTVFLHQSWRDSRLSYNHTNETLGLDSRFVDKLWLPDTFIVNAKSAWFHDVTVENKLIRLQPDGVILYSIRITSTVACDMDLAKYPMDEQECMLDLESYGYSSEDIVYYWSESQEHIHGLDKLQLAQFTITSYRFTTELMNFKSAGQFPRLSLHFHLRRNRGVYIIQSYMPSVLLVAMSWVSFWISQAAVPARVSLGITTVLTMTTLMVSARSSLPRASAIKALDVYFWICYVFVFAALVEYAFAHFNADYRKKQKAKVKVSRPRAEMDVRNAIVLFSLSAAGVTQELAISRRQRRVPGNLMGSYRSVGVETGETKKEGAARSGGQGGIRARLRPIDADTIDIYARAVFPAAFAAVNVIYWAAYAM
T1 sequence (P62813 28-455): as the sequence (P62813 28-455) above
T1 sequence (P63138 25-474 limits assumed): as the sequence (P63138 25-474 limits assumed) above
T3 sequence (P62813 28-455): as the sequence (P62813 28-455) above
T3 sequence (P63138 26-474): as the sequence (P63138 26-474) above

CC(=O)[C@H]1CC[C@H]2[C@@H]3CC[C@@H]4C[C@H](O)CC[C@]4(C)[C@H]3CC[C@]12C [3α, 5β-THP]
increase of α4 expression compared to control [1]: threefold

[Zn] [zinc]
zinc inhibition of GABA currents [2]: 72.4±6.9%
zinc inhibition of GABA currents [3]: 49.1±6.4%
zinc inhibition of GABA currents [4]: 66.4±6.4%

O=C1Nc2ccc(Cl)cc2C(c2ccccc2Cl)=NC1O (stereo not shown) [LZM, lorazepam]
maximal potentiation of GABA-gated current ([5]; 10 μM LZM, 48 h 3α,5β-THP with 2 h ethanol): 90%
potentiation of GABA-gated current ([5]; 10 μM LZM, 48 h 3α,5β-THP, saline-treated rats): 12-15%
LZM-induced potentiation of GABA-gated current ([5]; 2 hours of ethanol after progesterone withdrawal): robust

[La] [lanthanum]
inhibition of currents at α4β2δ receptors ([6]; La3+ 300 μM): 80%

Oc1noc2c1CCNC2 [THIP, 4,5,6,7-tetrahydroisoxazolo[5,4-c]pyridin-3-ol]
maximum current compared to that gated by GABA at α4βδ [7]: greater maximum current
ratio of currents induced by THIP:GABA ([6]; oocytes injected with α4+β2+δ subunits): 1.24
attenuation of ASR ([8]; P withdrawn animals): 70%
increase of ASR ([8]; control animals): about 40%
efficacy of THIP relative to GABA (maximum current) [9]: increased efficacy
